According to patent publication EP0326331B1, “Substituted quinolines and cinnolines” (Dow AgroSciences LLC, priority 1988, dated 1989):
Where two headings read alike, the source gives them in different places.

Columns and labels:
Format in all cases: in vivo
corn rootworm = experiment: Mite/insect screen, CRW; conditions: percent mortality; for mortality at 12 ppm: read-out: CRW RESULTS %
Procedure, shortened: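 Compounds dissolved in 50:50 acetone/alcohol with TOXIMUL R and S emulsifiers (23 and 13 g/L), then diluted in water to the stated test concentrations. Percent mortality of corn rootworm scored after standard exposure periods.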

[1] = tested on: Botrytis cinerea (gray mold); experiment: Test 1 greenhouse foliar spray screen, gray mold on grape berries; conditions: disease control rating, spray on grape berries, 400 ppm (+++ at 100 ppm)
[2] = tested on: Twospotted spider mites (Tetranychus urticae Koch); experiment: Mite/insect screen, SM; conditions: percent mortality; for mortality at 200 ppm: Tetranychus urticae, read-out: SM RESULTS %
Procedure, shortened: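 Compounds dissolved in 50:50 acetone/alcohol containing sulfonate/nonionic emulsifier blends, then diluted with water to the indicated concentrations. Leaves sprayed on both surfaces to runoff at 10 psi and dried one hour. Percent mortality scored after standard exposure periods.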

[3] = tested on: Pyricularia oryzae (rice blast); experiment: whole plant or invertebrate; conditions: disease control rating, foliar spray on rice, 400 ppm (+++ at 100 ppm)
[4] = tested on: melon aphids (Aphis gossypii Glover); experiment: Mite/insect screen, MA; conditions: percent mortality; for mortality at 200 ppm: Aphis gossypii, read-out: MA RESULTS %
Procedure, shortened: (§1)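 Compounds dissolved in acetone/alcohol (50:50) with TOXIMUL R and S emulsifiers, diluted in water to test concentrations, and sprayed to runoff on both leaf surfaces at 10 psi, then dried 1 h. For armyworm, excised treated leaves were offered to larvae; percent mortality scored after standard exposure periods.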

[5] = tested on: Erysiphe graminis tritici (powdery mildew); experiment: Test 1 greenhouse foliar spray screen, powdery mildew on wheat; conditions: disease control rating, foliar spray on wheat, 400 ppm (+++ at 100 ppm)
[6] = tested on: Pseudoperonospora cubensis (downy mildew); experiment: Test 1 greenhouse foliar spray screen, downy mildew on squash; conditions: for DOWN MDEW: disease control rating, foliar spray on squash, 400 ppm (+++ at 100 ppm)
[7] = tested on: southern armyworm (Spodopetra eridania Cramer); experiment: Mite/insect screen, SAW; conditions: Spodoptera eridania, percent mortality, read-out: SAW RESULTS %
Procedure, shortened: as §1

[8] = tested on: Septoria tritici (leaf blotch); experiment: Test 1 greenhouse foliar spray screen, leaf blotch on wheat; conditions: disease control rating, foliar spray on wheat, 400 ppm (+++ at 100 ppm)
[9] = tested on: Venturia inaequalis (apple scab); experiment: Test 1 greenhouse foliar spray screen, apple scab on apple seedling; conditions: disease control rating, foliar spray on apple seedling, 400 ppm (+++ at 100 ppm)
[10] = tested on: Puccinia recondita tritici (leaf rust); experiment: Test 1 greenhouse foliar spray screen, leaf rust on wheat; conditions: disease control rating, foliar spray on wheat, 400 ppm (+++ at 100 ppm)
[11] = tested on: Cercospora beticola (leaf spot); experiment: Test 1 greenhouse foliar spray screen, leaf spot on sugar beet; conditions: disease control rating, foliar spray on sugar beet, 400 ppm (+++ at 100 ppm)
[12] = foliar, rate 200 ppm, foliar spray on squash

SMILES	mortality at 12 ppm (corn rootworm; CRW RATE 12.00 PPM)	GRAY MOLD [1]	mortality at 200 ppm ([2]; SAW, SM & MA RATE 200 PPM)	RICE BLAST [3]	mortality at 200 ppm ([4]; SAW, SM & MA RATE 200 PPM)	POWD MDEW [5]	DOWN MDEW [6]	mortality at 200 ppm ([7]; SAW, SM & MA RATE 200 PPM)	LEAF BLOT [8]	APPL SCAB [9]	LEAF RUST [10]	activity against downy mildew ([6]; summary statement in the description)	CRW RESULTS % (corn rootworm; CRW RATE 12.00 PPM)	LEAF SPOT [11]	SM RESULTS % ([2]; SAW, SM & MA RATE 200 PPM)	MA RESULTS % ([4]; SAW, SM & MA RATE 200 PPM)	mortality at 12 ppm (corn rootworm; CRW rate 12.00 ppm)	mortality at 200 ppm [2, 12]	mortality at 200 ppm [4, 12]	mortality at 200 ppm [7, 12]
Cc1ccc2c(NCCc3ccccc3)ccnc2c1C [Example 32, 7,8-dimethyl-N-(2-phenylethyl)-4-quinolinamine]	0%	- (0-19% control at 400 ppm)	0%	+ (20-89% control at 400 ppm)	0%	+ (20-89% control at 400 ppm)	+++ (90-100% control at 100 ppm)	0%	- (0-19% control at 400 ppm)	- (0-19% control at 400 ppm)	- (0-19% control at 400 ppm)									
Clc1cccc2c(NCCc3ccccc3)ccnc12 [Example 33, 8-chloro-N-(2-phenylethyl)-4-quinolinamine]	0%	- (0-19% control at 400 ppm)	0%	+ (20-89% control at 400 ppm)	0%	- (0-19% control at 400 ppm)	+++ (90-100% control at 100 ppm)	0%	- (0-19% control at 400 ppm)	- (0-19% control at 400 ppm)	+ (20-89% control at 400 ppm)	particularly excellent activity								
Fc1cccc2c(NCCc3cccc(Cl)c3)ccnc12 [Example 74, N-[2-(3-chlorophenyl)ethyl]-8-fluoro-4-quinolinamine]	0%	- (0-19% control at 400 ppm)	0%	+ (20-89% control at 400 ppm)	0%	+ (20-89% control at 400 ppm)	+++ (90-100% control at 100 ppm)		- (0-19% control at 400 ppm)	- (0-19% control at 400 ppm)	+++ (90-100% control at 100 ppm)		0%	+++ (90-100% control at 100 ppm)	0%	0%				
CC(CNc1ccnc2c(F)cccc12)c1ccc(Cl)cc1 (centres unmarked) [Example 79, N-[2-(4-chlorophenyl)propyl]-8-fluoro-4-quinolinamine]	0%	- (0-19% control at 400 ppm)	0%	++ (90-100% control at 400 ppm)	0%	+ (20-89% control at 400 ppm)	+++ (90-100% control at 100 ppm)		+ (20-89% control at 400 ppm)	- (0-19% control at 400 ppm)	++ (90-100% control at 400 ppm)		0%	+++ (90-100% control at 100 ppm)	0%	0%				
c1ccc(CCNc2cc(NCCc3ccccc3)c3ccccc3n2)cc1 [Example 181, N,N'-bis(2-phenylethyl)-2,4-quinolinediamine]		- (0-19% control at 400 ppm)		+ (20-89% control at 400 ppm)		+ (20-89% control at 400 ppm)	+++ (90-100% control at 100 ppm)		- (0-19% control at 400 ppm)	- (0-19% control at 400 ppm)	+ (20-89% control at 400 ppm)						0%	0%	0%	0%
